Several values for one entry are separate records, joined by “and”; a condition that tells them apart may be missing. Identical values can stand only once. Numbers after ± are expanded uncertainties.
conditions: 364.52 K; Liquid; Closed cell (Static) method

Row | Compound | vapor or sublimation pressure
1 | CC(C)(C)O [2-methylpropan-2-ol] | 143 ± 1 kPa
2 | C/C=C\C [(Z)-2-butene] | 1190.5 ± 5.3 kPa and 1189.6 ± 5.2 kPa
3 | CCC(C)O (stereo unspecified) [butan-2-ol] | 74 ± 0.9 kPa
4 | CO [methanol] | 267.3 ± 1.4 kPa
5 | CC(C)O [propan-2-ol] | 143.9 ± 1 kPa

same assay, conditions: 364.53 K; Liquid; Closed cell (Static) method

Row | Compound | vapor or sublimation pressure
6 | C/C=C\C [(Z)-2-butene] | 1190.7 ± 5.2 kPa

Source: the NIST ThermoML archive (doi:10.1021/je800088e)
